Patent US5859010A, “Factor VII -binding reagent” (Novo Nordisk A/S, priority 1996, dated 1999)
One block for each molecule: values may come before it.

Key:
[1] = tested on: factor VIIa-tissue factor complex; assay: Effect of zinc and calcium ions on the activity of the factor VIIa-tissue factor complex (FIG. 1B); type: biochemical; conditions: presence of tissue factor (FIG. 1B)
Text: (§1) An effect of Ca^2+ ions is not easily contemplated in this model since the binding site for Ca^2+ in the serine protease domain is not nearby. […] Since histidines are prominant in zinc coordination we further propose that one or more of the residues of His 211, His 216 and His 256 are involved in the binding of Zn^2+ ions to factor VIIa.

[2] = tested on: factor VIIa; assay: Effect of zinc and calcium ions on the activity of factor VIIa (FIG. 1A); type: biochemical; conditions: absence of tissue factor (FIG. 1A)
Text: as §1

[3] = blood; cited from earlier work
[4] = molecular target: T1, Factor VIIa/tissue factor (Homo sapiens, UniProt P08709); assay: FVIIa/tissue factor activity measured with S2288 in presence and absence of Zn and chelator; type: biochemical; conditions: 10 nM FVIIa, 50 nM tissue factor
T1 construct: Single-chain factor VII may be converted to two-chain factor VIIa
Procedure: The activity of 10 nM FVIIa and 50 nM tissue factor in the presence and absence of Zn and chelator was measured with S2288 as described in Example 4

T1 sequence (P08709 213-466 limits assumed): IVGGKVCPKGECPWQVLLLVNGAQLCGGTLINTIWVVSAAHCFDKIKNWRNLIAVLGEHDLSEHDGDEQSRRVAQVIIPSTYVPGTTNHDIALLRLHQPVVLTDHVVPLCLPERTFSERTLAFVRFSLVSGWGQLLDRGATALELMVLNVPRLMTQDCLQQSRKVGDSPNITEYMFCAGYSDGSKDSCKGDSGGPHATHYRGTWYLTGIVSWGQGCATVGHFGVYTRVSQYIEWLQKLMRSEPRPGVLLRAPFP
T1 sequence (P08709 61-212 partner limits assumed): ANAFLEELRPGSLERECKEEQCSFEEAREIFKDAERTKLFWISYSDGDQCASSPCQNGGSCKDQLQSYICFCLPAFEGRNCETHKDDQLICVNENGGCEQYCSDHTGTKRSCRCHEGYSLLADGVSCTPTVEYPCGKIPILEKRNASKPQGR
T1 sequence (P13726 33-295 partner): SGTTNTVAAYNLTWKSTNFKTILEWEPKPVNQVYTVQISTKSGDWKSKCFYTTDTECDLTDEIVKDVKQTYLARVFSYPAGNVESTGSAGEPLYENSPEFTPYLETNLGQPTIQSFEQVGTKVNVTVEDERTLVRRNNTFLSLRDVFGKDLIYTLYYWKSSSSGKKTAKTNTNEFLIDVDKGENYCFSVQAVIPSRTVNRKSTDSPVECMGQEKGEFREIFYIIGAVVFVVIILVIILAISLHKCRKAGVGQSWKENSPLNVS

Molecule: [Zn+2] [Zn^2+]
inhibitory effect of Zn2+ on factor VIIa activity in presence of Ca2+ [1]: partly abolished by Ca^2+ ions in a competitive manner
inhibitory effect of Zn2+ on factor VIIa activity in presence of Ca2+ [2]: partly abolished by Ca^2+ ions in a competitive manner

Molecule: heparin
half-life [3]: approximately 80 minutes

activity at 50 µM ([4]; 100 μM ZnCl2, 50 μM compound): 55%
activity at 50 µM ([4]; No ZnCl2, 50 μM compound): 98%
Molecule: O=C(NO)c1cc(C(=O)NO)[nH]n1 [NNC (28)]
